Mutagenic call data for 3 molecules are collected here from PubChem BioAssay AID1259407 (Chemical Carcinogenesis Research Information System (CCRIS), 2018).

Activity calls are given as the source filed them. The rule behind the calls is not given here.

This data set has as its system CCRIS mutagenicity, Ames/micronucleus/aberration tests. The experiment in a line: CCRIS mutagenicity studies.
The mark [1] stands for this setting: Test System: AMES SALMONELLA TYPHIMURIUM, Strain/Indicator: TA100, Metabolic Activation: NONE, Method: PREINCUBATION

Turning to `COc1cc2c(c3oc4cccc(O)c4c(=O)c13)[C@@H]1C=CO[C@@H]1O2`, the mutagenic call was “active; positive” (End Point: IN VITRO MICRONUCLEUS, Test System: AHH-1 CELLS, Metabolic Activation: NONE); “active; positive” (End Point: IN VITRO MICRONUCLEUS, Test System: MCL-5 CELLS, Metabolic Activation: NONE); “inactive; negative” (Test System: AMES SALMONELLA TYPHIMURIUM, Strain/Indicator: TA98, Metabolic Activation: R,L,S-9, PHENOBARBITAL, Method: STANDARD PLATE); “active; positive” (Test System: AMES SALMONELLA TYPHIMURIUM, Strain/Indicator: TA98, Metabolic Activation: RAT, LIVER, MICROSOMES, PHENOBARBITAL, Method: STANDARD PLATE); “active; positive” (Test System: AMES SALMONELLA TYPHIMURIUM, Strain/Indicator: TA98, Metabolic Activation: RAT, LIVER, S-9, AROCLOR 1254, Method: STANDARD PLATE); “active; positive” (Test System: AMES SALMONELLA TYPHIMURIUM, Strain/Indicator: TA98, Metabolic Activation: RAT, LIVER, S-9, KC500 OR PHENOBARBITAL, Method: LIQUID SUSPENSION). The mutagenic call (Test System: AMES SALMONELLA TYPHIMURIUM, Strain/Indicator: TA98, Metabolic Activation: RAT, LIVER, S-9, PHENOBARBITAL, Method: STANDARD PLATE) is “inactive; negative”; the mutagenic call under setting [1] was “active; positive”; the mutagenic call (Test System: AMES SALMONELLA TYPHIMURIUM, Strain/Indicator: TA100, Metabolic Activation: R,L,S-9, PHENOBARBITAL, Method: STANDARD PLATE) was “active; positive”; the mutagenic call (Test System: AMES SALMONELLA TYPHIMURIUM, Strain/Indicator: TA100, Metabolic Activation: RAT, LIVER, MICROSOMES, PHENOBARBITAL, Method: STANDARD PLATE) was “active; positive”; the mutagenic call (Test System: AMES SALMONELLA TYPHIMURIUM, Strain/Indicator: TA100, Metabolic Activation: RAT, LIVER, S-9, AROCLOR 1254, Method: STANDARD PLATE) was “active; positive”; the mutagenic call (Test System: AMES SALMONELLA TYPHIMURIUM, Strain/Indicator: TA100, Metabolic Activation: RAT, LIVER, S-9, KC500 OR PHENOBARBITAL, Method: LIQUID SUSPENSION) is “active; positive”. In addition, the mutagenic call is “active; positive” (Test System: AMES SALMONELLA TYPHIMURIUM, Strain/Indicator: TA100, Metabolic Activation: RAT, LIVER, S-9, PHENOBARBITAL, Method: PREINCUBATION); “active; positive” (Test System: AMES SALMONELLA TYPHIMURIUM, Strain/Indicator: TA100, Metabolic Activation: RAT, LIVER, S-9, PHENOBARBITAL, Method: STANDARD PLATE); “active; positive” (Test System: AMES SALMONELLA TYPHIMURIUM, Strain/Indicator: TA1538, Metabolic Activation: RAT, LIVER, S-9, AROCLOR 1254, Method: STANDARD PLATE); “active; positive” (Test System: UDS HUMAN CELLS, Strain/Indicator: THY INCORP (NON-S-PHASE), Metabolic Activation: RAT, LIVER, S-9, PHENOBARBITAL, Method: LIQUID SCINTILLATION COUNTING); “active; positive” (Test System: UDS HUMAN FIBROBLASTS, Strain/Indicator: THY INCORP (NON-S-PHASE), Metabolic Activation: MOUSE, LIVER, S-9, Method: AUTORADIOGRAPHY).

Turning to `CCC(C)Nc1ccc(NC(C)CC)cc1` (centres undefined), the mutagenic call is, setting by setting: (End Point: IN VITRO CHROMOSOMAL ABERRATIONS, Test System: CHINESE HAMSTER LUNG CELLS (CHL), Metabolic Activation: RAT, LIVER, S-9, KC-400) “inactive; negative”; (End Point: IN VITRO CHROMOSOMAL ABERRATIONS, Test System: CHINESE HAMSTER OVARY CELLS (CHO), Metabolic Activation: NONE) “inactive; negative”; (End Point: IN VITRO CHROMOSOMAL ABERRATIONS, Test System: CHINESE HAMSTER OVARY CELLS (CHO), Metabolic Activation: RAT, LIVER, S-9, AROCLOR 1254) “inactive; negative”; (Test System: AMES SALMONELLA TYPHIMURIUM, Strain/Indicator: TA97, Metabolic Activation: HAMSTER, LIVER, S-9, AROCLOR 1254 (10%), Method: PREINCUBATION) “inactive; negative”; (Test System: AMES SALMONELLA TYPHIMURIUM, Strain/Indicator: TA97, Metabolic Activation: HAMSTER, LIVER, S-9, AROCLOR 1254 (30%), Method: PREINCUBATION) “inactive; negative”; (Test System: AMES SALMONELLA TYPHIMURIUM, Strain/Indicator: TA97, Metabolic Activation: NONE, Method: PREINCUBATION) “inactive; negative”. The mutagenic call by setting is: (Test System: AMES SALMONELLA TYPHIMURIUM, Strain/Indicator: TA97, Metabolic Activation: RAT, LIVER, S-9, AROCLOR 1254 (10%), Method: PREINCUBATION) “inactive; negative”; (Test System: AMES SALMONELLA TYPHIMURIUM, Strain/Indicator: TA97, Metabolic Activation: RAT, LIVER, S-9, AROCLOR 1254 (30%), Method: PREINCUBATION) “inactive; negative”; (Test System: AMES SALMONELLA TYPHIMURIUM, Strain/Indicator: TA98, Metabolic Activation: HAMSTER, LIVER, S-9, AROCLOR 1254 (10%), Method: PREINCUBATION) “inactive; negative”; (Test System: AMES SALMONELLA TYPHIMURIUM, Strain/Indicator: TA98, Metabolic Activation: HAMSTER, LIVER, S-9, AROCLOR 1254 (30%), Method: PREINCUBATION) “inactive; negative”; (Test System: AMES SALMONELLA TYPHIMURIUM, Strain/Indicator: TA98, Metabolic Activation: NONE, Method: PREINCUBATION) “inactive; negative”; (Test System: AMES SALMONELLA TYPHIMURIUM, Strain/Indicator: TA98, Metabolic Activation: RAT, LIVER, S-9, AROCLOR 1254 (10%), Method: PREINCUBATION) “inactive; negative”. The mutagenic call is “inactive; negative” (Test System: AMES SALMONELLA TYPHIMURIUM, Strain/Indicator: TA98, Metabolic Activation: RAT, LIVER, S-9, AROCLOR 1254 (30%), Method: PREINCUBATION); “inactive; negative” (Test System: AMES SALMONELLA TYPHIMURIUM, Strain/Indicator: TA100, Metabolic Activation: HAMSTER, LIVER, S-9, AROCLOR 1254 (5%), Method: PREINCUBATION); “inactive; negative” (Test System: AMES SALMONELLA TYPHIMURIUM, Strain/Indicator: TA100, Metabolic Activation: HAMSTER, LIVER, S-9, AROCLOR 1254 (10%), Method: PREINCUBATION); “inactive; negative” (Test System: AMES SALMONELLA TYPHIMURIUM, Strain/Indicator: TA100, Metabolic Activation: HAMSTER, LIVER, S-9, AROCLOR 1254 (30%), Method: PREINCUBATION); “inactive; negative” under setting [1]; “inactive; negative” (Test System: AMES SALMONELLA TYPHIMURIUM, Strain/Indicator: TA100, Metabolic Activation: RAT, LIVER, S-9, AROCLOR 1254 (5%), Method: PREINCUBATION). The mutagenic call (Test System: AMES SALMONELLA TYPHIMURIUM, Strain/Indicator: TA100, Metabolic Activation: RAT, LIVER, S-9, AROCLOR 1254 (30%), Method: PREINCUBATION) was “inactive; negative”; the mutagenic call (Test System: AMES SALMONELLA TYPHIMURIUM, Strain/Indicator: TA100, Metabolic Activation: RAT,LIVER, S-9, AROCLOR 1254 (10%), Method: PREINCUBATION) was “inactive; negative”; the mutagenic call (Test System: AMES SALMONELLA TYPHIMURIUM, Strain/Indicator: TA1535, Metabolic Activation: HAMSTER, LIVER, S-9, AROCLOR 1254 (10%), Method: PREINCUBATION) is “inactive; negative”; the mutagenic call (Test System: AMES SALMONELLA TYPHIMURIUM, Strain/Indicator: TA1535, Metabolic Activation: HAMSTER, LIVER, S-9, AROCLOR 1254 (30%), Method: PREINCUBATION) was “inactive; negative”; the mutagenic call (Test System: AMES SALMONELLA TYPHIMURIUM, Strain/Indicator: TA1535, Metabolic Activation: NONE, Method: PREINCUBATION) is “inactive; negative”; the mutagenic call (Test System: AMES SALMONELLA TYPHIMURIUM, Strain/Indicator: TA1535, Metabolic Activation: RAT, LIVER, S-9, AROCLOR 1254 (10%), Method: PREINCUBATION) was “inactive; negative”. Also, the mutagenic call (Test System: AMES SALMONELLA TYPHIMURIUM, Strain/Indicator: TA1535, Metabolic Activation: RAT, LIVER, S-9, AROCLOR 1254 (30%), Method: PREINCUBATION) was “inactive; negative”.

For the molecule `c1ccc2scnc2c1`, the mutagenic call is “inactive; negative. reevaluation of results: negative” (Test System: MOUSE LYMPHOMA, Strain/Indicator: L5178Y (TK+/TK-), Metabolic Activation: NONE, Method: SUSPENSION/PLATE) and “inactive; negative. reevaluation of results: negative” (Test System: MOUSE LYMPHOMA, Strain/Indicator: L5178Y (TK+/TK-), Metabolic Activation: RAT, LIVER, S-9, AROCLOR 1254, Method: SUSPENSION/PLATE).
